Reference: patent US10907199B2, “Double-strand DNA break quantification method” (SOCIETE DE COMMERCIALISATION DES PRODUITS DE LA RECHERCHE …, priority 2017, dated 2021)

Target: T1, terminal deoxynucleotidyl transferase (TdT) (Bos taurus, UniProt P06526)
T1 construct: purchased Roche (Sigma-Aldrich Canada) 3333574001
Experiment: TdT inhibition by ATP: tailing reaction of linearized pBlueScript plasmid with TdT and dATP, read by DNA size shift on agarose gel
Format: biochemical
Procedure: Linearized pBlueScript plasmid was used in a tailing reaction using TdT and dATP following manufacturer's instruction. Different concentrations of ATP were added in the reaction and the tailing efficiency was observed after agarose gel electrophoresis by a shift in the DNA size. It was sought to determine conditions for efficient repair of DNA nicks and gaps prior to the TdT end labeling. A proper combination of T4 DNA ligase and T4 DNA polymerase was used to seal nicks and fill the gaps respectively and termed «Nick and Gap Repair» (NGR). […] Limiting the purification steps is crucial to improve DNA recovery throughout the process. It was observed that TdT is inhibited by the high concentration of ATP recommended for DNA ligations (1 mM, FIG. 6). However, it was determined that efficient DNA nick sealing is still observed by decreasing the ATP concentration to 1 μM. […] From these simple modifications, both repair and labeling reactions can be performed without the need for DNA purification between these steps. It is worth noting that although the use of «Tap» DNA ligase would have the advantage of preventing DSB ligations, T4 DNA ligase was however strongly preferred because of its compatibility with the gap-filling step and its greater nick sealing activity (not shown). The efficiency of the repair step for the specific capture of DSBs within genomic DNA was established using HeLa-I-SceI DNA pre-digested with the nicking endonuclease Nt.BbvCI as this enzyme creates a single nick within a 7 nucleotide recognition sequence. A single Nt.BbvCI recognition sequence is present within the I-SceI insert and can be detected by DBrIC using a primer pair adjacent to the nick (FIG. 5C).

T1 sequence (P06526 139-509 limits assumed): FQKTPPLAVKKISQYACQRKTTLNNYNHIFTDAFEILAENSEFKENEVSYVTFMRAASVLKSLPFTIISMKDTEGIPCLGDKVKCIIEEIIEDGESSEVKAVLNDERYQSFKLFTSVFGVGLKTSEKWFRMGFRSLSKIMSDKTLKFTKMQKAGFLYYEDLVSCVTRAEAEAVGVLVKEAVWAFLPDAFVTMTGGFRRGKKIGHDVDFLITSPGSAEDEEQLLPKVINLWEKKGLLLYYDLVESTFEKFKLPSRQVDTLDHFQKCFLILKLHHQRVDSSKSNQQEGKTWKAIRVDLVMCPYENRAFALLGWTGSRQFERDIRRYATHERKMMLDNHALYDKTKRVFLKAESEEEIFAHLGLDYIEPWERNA

**Q.** How did the “subsequent TdT reaction in presence of ATP” value (1 μM ATP) turn out when `Nc1ncnc2c1ncn2[C@@H]1O[C@H](COP(=O)(O)OP(=O)(O)OP(=O)(O)O)[C@@H](O)[C@H]1O` [ATP, adenosine triphosphate] was run?
**A.** proceed normally

**Q.** What about the “enzymatic activity of the TdT in presence of ATP” value (10 μM ATP (usual concentration for DNA ligase and DNA polymerase), FIG. 6) of the same compound?
**A.** inhibit

**Q.** And the “TdT enzymatic activity (tailing efficiency) in presence of ATP” value (1 mM ATP (high concentration recommended for DNA ligations), FIG. 6)?
**A.** inhibited
